# Measured values taken from ChEMBL document CHEMBL1147165, “Synthesis and alpha(1)-adrenoceptor antagonist activity of derivatives and isosters of the furan portion of (+)-cyclazosin” (Bioorg Med Chem, 2007).
# How the values were obtained:
# [1] = molecular target: T1, Alpha-1A adrenergic receptor (Rattus norvegicus, UniProt P43140); assay: (§1) Antagonist activity against adrenergic alpha-1A receptor in rat prostatic vas deferens assessed as inhibition of noradrenaline-induced contraction; format: functional, tissue-based; conditions: read-out: pA2 (converted)
# T1 sequence (P43140 whole entry): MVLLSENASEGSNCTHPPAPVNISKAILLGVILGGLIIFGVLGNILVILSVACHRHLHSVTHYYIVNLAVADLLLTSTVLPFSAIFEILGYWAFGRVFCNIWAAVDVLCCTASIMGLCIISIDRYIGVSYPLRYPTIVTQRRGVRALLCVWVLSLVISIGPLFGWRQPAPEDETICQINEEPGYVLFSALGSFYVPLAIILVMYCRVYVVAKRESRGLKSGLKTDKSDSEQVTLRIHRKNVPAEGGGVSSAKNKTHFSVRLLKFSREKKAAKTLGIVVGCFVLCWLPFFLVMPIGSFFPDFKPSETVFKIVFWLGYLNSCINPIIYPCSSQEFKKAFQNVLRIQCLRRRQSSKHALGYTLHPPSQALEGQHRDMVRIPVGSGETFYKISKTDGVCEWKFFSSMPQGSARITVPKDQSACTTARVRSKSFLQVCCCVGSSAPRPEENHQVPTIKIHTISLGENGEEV
# [2] = molecular target: T2, Alpha-1B adrenergic receptor (Rattus norvegicus) (UniProt P15823); assay: (§2) Antagonist activity against adrenergic Alpha-1B receptor in rat spleen assessed as inhibition of phenylephrine-induced response; format: functional, tissue-based
# T2 sequence (whole entry): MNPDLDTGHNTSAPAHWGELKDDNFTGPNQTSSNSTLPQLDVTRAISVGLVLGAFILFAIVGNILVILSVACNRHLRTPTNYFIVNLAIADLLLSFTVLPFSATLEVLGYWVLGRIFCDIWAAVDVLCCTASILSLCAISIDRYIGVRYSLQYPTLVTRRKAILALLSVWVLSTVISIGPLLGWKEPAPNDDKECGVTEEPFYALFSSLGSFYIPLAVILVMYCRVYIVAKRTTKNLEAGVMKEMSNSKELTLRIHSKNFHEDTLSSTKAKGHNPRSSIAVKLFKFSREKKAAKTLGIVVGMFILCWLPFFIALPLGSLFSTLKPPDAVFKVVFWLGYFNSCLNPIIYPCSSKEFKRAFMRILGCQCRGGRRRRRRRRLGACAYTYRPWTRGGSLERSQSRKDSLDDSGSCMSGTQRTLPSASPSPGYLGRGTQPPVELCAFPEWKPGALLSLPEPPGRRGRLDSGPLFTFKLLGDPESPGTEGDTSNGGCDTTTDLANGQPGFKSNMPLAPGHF
# [3] = molecular target: T3, Alpha-1D adrenergic receptor (Rattus norvegicus, UniProt P23944); assay: (§3) Antagonist activity against adrenergic Alpha-1D receptor in rat thoracic aorta assessed as noradrenaline-induced response; format: functional, tissue-based; conditions: read-out: pA2 (converted)
# T3 sequence (P23944 whole entry): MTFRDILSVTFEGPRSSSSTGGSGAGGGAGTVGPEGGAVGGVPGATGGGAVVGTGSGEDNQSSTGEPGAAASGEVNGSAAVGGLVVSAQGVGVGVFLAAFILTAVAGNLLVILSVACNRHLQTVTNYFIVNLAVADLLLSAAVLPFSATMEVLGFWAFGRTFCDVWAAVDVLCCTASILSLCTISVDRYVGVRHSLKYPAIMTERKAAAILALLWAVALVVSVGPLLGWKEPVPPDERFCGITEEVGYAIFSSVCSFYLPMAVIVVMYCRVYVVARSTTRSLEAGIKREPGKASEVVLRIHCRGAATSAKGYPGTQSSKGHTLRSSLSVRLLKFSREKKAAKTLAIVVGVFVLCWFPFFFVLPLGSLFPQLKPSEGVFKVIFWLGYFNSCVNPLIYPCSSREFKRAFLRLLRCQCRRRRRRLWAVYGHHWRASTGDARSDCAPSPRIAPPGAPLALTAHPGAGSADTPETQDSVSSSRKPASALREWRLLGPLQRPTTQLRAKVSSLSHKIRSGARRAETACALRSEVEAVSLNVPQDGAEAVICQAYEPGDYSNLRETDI
# [4] = molecular target: Alpha adrenergic receptor 1A and 1B (Rattus norvegicus) (UniProt P15823+P43140); assay: Selectivity ratio for rat adrenergic alpha-1A receptor over rat adrenergic Alpha-1B receptor; format: functional
# Rattus norvegicus = species: Rattus norvegicus; assay: Selectivity ratio for rat adrenergic Alpha-1D receptor over rat adrenergic Alpha-1B receptor; format: functional
# [5] = molecular target: Alpha adrenergic receptor 1A and 1D (Rattus norvegicus) (UniProt P23944+P43140); assay: Selectivity ratio for rat adrenergic alpha-1A receptor over rat adrenergic Alpha-1D receptor; format: functional
# [6] = molecular target: T4, Alpha-1A adrenergic receptor (Homo sapiens, UniProt P35348); assay: Displacement of [3H]prazosin from human adrenergic alpha-1a receptor expressed in CHO cells; format: cell-based
# T4 sequence (P35348 whole entry): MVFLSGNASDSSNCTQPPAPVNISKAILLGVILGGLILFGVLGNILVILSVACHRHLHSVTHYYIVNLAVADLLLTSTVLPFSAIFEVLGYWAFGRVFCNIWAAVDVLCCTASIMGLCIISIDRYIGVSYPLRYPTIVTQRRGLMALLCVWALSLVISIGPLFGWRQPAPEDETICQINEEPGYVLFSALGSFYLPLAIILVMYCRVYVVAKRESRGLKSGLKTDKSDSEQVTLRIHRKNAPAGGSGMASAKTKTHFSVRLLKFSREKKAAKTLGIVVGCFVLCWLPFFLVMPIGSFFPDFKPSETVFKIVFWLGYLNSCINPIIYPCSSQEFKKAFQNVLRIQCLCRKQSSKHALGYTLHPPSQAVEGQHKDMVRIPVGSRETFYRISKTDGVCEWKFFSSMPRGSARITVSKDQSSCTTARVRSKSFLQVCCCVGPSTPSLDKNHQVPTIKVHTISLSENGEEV
# [7] = molecular target: T5, Alpha-1B adrenergic receptor (Homo sapiens, UniProt P35368); assay: Displacement of [3H]prazosin from human adrenergic alpha-1b receptor expressed in CHO cells; format: cell-based
# T5 sequence (P35368 whole entry): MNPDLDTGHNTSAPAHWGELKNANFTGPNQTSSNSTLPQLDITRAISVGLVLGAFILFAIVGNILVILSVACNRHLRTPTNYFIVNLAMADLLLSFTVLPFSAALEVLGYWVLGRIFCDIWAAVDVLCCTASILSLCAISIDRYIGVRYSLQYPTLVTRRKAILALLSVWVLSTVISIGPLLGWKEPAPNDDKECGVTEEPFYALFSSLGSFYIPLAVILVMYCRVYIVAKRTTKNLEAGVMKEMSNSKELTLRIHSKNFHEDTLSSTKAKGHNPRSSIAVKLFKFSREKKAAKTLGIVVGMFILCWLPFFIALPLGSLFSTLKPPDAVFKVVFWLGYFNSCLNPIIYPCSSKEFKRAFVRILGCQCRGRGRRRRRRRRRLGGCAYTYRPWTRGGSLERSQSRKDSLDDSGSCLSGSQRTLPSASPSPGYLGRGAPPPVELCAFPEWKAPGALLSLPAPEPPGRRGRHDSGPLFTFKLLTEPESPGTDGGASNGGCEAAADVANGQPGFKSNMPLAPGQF
# [8] = molecular target: T6, Alpha-1D adrenergic receptor (Homo sapiens, UniProt P25100); assay: Displacement of [3H]prazosin from human adrenergic alpha-1d receptor expressed in CHO cells; format: cell-based
# T6 sequence (P25100 whole entry): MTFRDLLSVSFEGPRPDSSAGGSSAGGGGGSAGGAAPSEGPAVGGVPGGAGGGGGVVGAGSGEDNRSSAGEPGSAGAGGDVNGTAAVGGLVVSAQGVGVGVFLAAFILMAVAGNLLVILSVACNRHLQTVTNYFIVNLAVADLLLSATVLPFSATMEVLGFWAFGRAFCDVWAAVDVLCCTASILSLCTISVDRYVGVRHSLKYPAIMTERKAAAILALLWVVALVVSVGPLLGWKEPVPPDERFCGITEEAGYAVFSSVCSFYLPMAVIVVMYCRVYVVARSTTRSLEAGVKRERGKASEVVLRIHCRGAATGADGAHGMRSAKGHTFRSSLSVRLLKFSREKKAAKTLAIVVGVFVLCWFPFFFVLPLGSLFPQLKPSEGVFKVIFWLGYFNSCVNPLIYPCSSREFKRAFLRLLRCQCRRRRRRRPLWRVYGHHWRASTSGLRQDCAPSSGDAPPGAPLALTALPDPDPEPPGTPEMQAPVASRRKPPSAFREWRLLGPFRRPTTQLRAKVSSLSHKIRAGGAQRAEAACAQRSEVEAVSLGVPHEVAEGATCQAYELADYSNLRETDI
# [9] = molecular target: Adrenergic receptors; alpha-1 A & B (Homo sapiens) (UniProt P35348+P35368); assay: Selectivity ratio of pKi for human adrenergic alpha-1a receptor to pKi for human adrenergic alpha-1b receptor; format: protein assay
# Homo sapiens = species: Homo sapiens; assay: Selectivity ratio of pKi for human adrenergic alpha-1d receptor to pKi for human adrenergic alpha-1b receptor
# [10] = molecular target: Alpha adrenergic receptor (1a and 1d) (Homo sapiens) (UniProt P35348+P25100); assay: Selectivity ratio of pKi for human adrenergic alpha-1a receptor to pKi for human adrenergic alpha1d receptor; format: protein assay
# [11] = molecular target: T7, Alpha-1D adrenergic receptor (Rattus norvegicus) (UniProt P23944); assay: as §3; format: functional, tissue-based
# T7 sequence (whole entry): T3 sequence (P23944 whole entry)
# [12] = molecular target: T8, Alpha-1A adrenergic receptor (Rattus norvegicus) (UniProt P43140); assay: as §1; format: functional, tissue-based
# T8 sequence (whole entry): T1 sequence (P43140 whole entry)
# [13] = molecular target: T9, Alpha-1B adrenergic receptor (Rattus norvegicus, UniProt P15823); assay: as §2; format: functional, tissue-based; conditions: read-out: pA2 (converted)
# T9 sequence (P15823 whole entry): T2 sequence (whole entry)
SMILES,Kb [1] [nM],pKb [2],Kb [3] [nM],Selectivity ratio [4],Selectivity ratio (Rattus norvegicus),Selectivity ratio [5],Ki [6] [nM],Ki [7] [nM],Ki [8] [nM],Selectivity ratio [9],Selectivity ratio (Homo sapiens),Selectivity ratio [10],pKb [11],pKb [12],Kb [13] [nM]
COc1ccc(C(=O)N2CCN(c3nc(N)c4cc(OC)c(OC)cc4n3)[C@@H]3CCCC[C@@H]32)o1,141,8.5,89.1,45,28,2,27.5,0.871,3.63,32,4,8,–,–,–
COc1cc2nc(N3CCN(C(=O)c4ccccc4)[C@H]4CCCC[C@H]43)nc(N)c2cc1OC,30.9,8.83,–,21,12,2,4.17,0.49,3.24,8.5,7,1,7.76,–,–
COc1cc2nc(N3CCN(C(=O)c4ccccn4)[C@H]4CCCC[C@H]43)nc(N)c2cc1OC,–,8.64,–,40,33,1,49,5.89,26.9,8,5,2,7.12,7.04,–
COc1cc2nc(N3CCN(C(=O)c4ccc(Br)o4)[C@H]4CCCC[C@H]43)nc(N)c2cc1OC,–,8.5,58.9,9,19,0.5,3.47,0.309,1.55,11,5,2,–,7.53,–
COc1cc2nc(N3CCN(C(=O)c4cccs4)[C@H]4CCCC[C@H]43)nc(N)c2cc1OC,–,8.78,35.5,22,21,1,4.27,0.24,2.34,18,10,2,–,7.44,–
COc1cc2nc(N3CCN(C(=O)c4ccc[nH]4)[C@H]4CCCC[C@H]43)nc(N)c2cc1OC,–,8.05,–,10,5,2,10.5,3.16,1.51,3,0.5,7,7.33,7.06,–
COc1cc2nc(N3CCN(C(=O)c4ccc(C(C)=O)o4)[C@H]4CCCC[C@H]43)nc(N)c2cc1OC,–,8.13,214,12,29,0.4,25.7,1.38,7.41,19,5,4,–,7.05,–
COc1cc2nc(N3CCN(C(=O)c4ccco4)[C@H]4CCCC[C@H]43)nc(N)c2cc1OC [CYCLAZOSIN],17,8.86,–,–,–,–,12.3,0.135,3.24,–,–,–,–,–,–
COc1cc2nc(N3CCN(C(=O)c4ccc(C)o4)[C@H]4CCCC[C@H]43)nc(N)c2cc1OC,331,–,91.2,148,41,4,23.4,0.871,4.79,27,6,5,–,–,2.24
